Test results reported in patent US20110003013A1, “METHOD OF INCREASING METABOLISM” (GARVAN INSTITUTE OF MEDICAL RESEARCH, priority 2008, published 2011).
Entries after “also recorded” stand apart in the source; their conditions may differ.

Legend:
[1] = Indirect calorimetry (Oxymax): VO2, VCO2, RER, heat, activity; assay type: in vivo, C57Bl/6 mice
Method: (§1) Each mouse was weighed weekly and the blood glucose levels assessed at random times every second week alternating with rectal temperatures. Intraperitoneal Glucose Tolerance Testing (IPGTT) was carried out at week 5 and 21 using 2g glucose/kg dose. Insulin Tolerance Testing (ITT) was carried at week 2 (0.33 U/kg) and week 6 (0.50 U/kg). Glucose Stimulated Insulin Secretion (GSIS)(3g glucose/kg) was studied out at week 7. Food intake studies were carried out at weeks 0, 4, 8 and 25. Indirect calorimetry was performed using the Oxymax System (Columbus Instruments, Columbus, Ohio) at weeks 0, 4, 8 and 25. Measurements were taken over a 12-hour light cycle and a 12-hour dark cycle.
Mice were placed with ad libitum food and water in separate chambers in an 8 chamber, indirect open circuit calorimeter (Columbus Oxymax Respirometer 0246-002M, Columbus Instruments Ohio USA) for 36-48 hours. This machine obtains periodic measurements of the percentage of oxygen and carbon dioxide in the test chamber. Changes in gas concentrations are used to calculate the rate of oxygen consumption (VO2) and carbon dioxide production (VCO2) per mouse, with a readout every 27 minutes (Oxymax Software 0246-102M). The software calculates heat production per mouse and the respiratory exchange ratio (RER) (VCO2/VO2) using VO2 and VCO2. Activity levels were simultaneously measured in 2 dimensions (Opto-M3 activity meter) using […] wavelength light beams. Ambulatory movements were registered when more than one light beams in the same axis were crossed by an animal in a given period of time. The last 24 hours of data were analysed to allow for an acclimatisation period.
The hourly mean VO2 and VCO2 (mL/hr/kg total body weight) were calculated by averaging the VO2 and VCO2 readings produced by the Oxymax software for each hour. VO2 and VCO2 per unit of lean body mass (VXX2LM) was calculated from the Oxymax results (VXX2) using the following equation: […]
The hourly mean RER and the total, light and dark RER were calculated in a similar manner to VO2 and VCO2. No adjustment for body weight was required.
Heat (total energy expenditure, kcal/hr/mouse) was calculated by the Oxymax software using the formula:
Heat=CV (calorific value)*VO2 where CV=3.815+(1.232*RER)
The hourly mean heat production and the total, light and dark heat production were calculated in a similar manner to VO2 and VCO2. Heat production per unit of lean body mass was calculated by dividing the Oxymax reading by unit of lean body mass.
To quantify activity levels, the total number of ambulatory movements in the x axis and the y axis was calculated per unit time for each mouse.
Oxymax data were analysed using t-tests.

HIF-1α = test: Western blot of liver lysates for HIF-1α; assay type: in vivo, C57Bl/6 mice; details: vs control
Method: Fresh tissues were removed rapidly from culled animals and kept frozen in the −80° C. freezer. They were then homogenized in lysis buffer and sonicated in cold RIPA buffer ([…] pH 7.4, 1% NP40, 0.25% sodium deoxycholate, […], 1 mM EDTA, 1 mM PMSF and protease inhibitor cocktail). 121 μg of protein sample was resolved on an 8% SDS PAGE gel. Proteins were transferred onto nitrocellulose membrane. Primary antibodies (HIF-1α, and (β-tubulin) were prepared in milk buffers at concentrations of 1:500 and 1:2000 respectively and the membrane was incubated overnight at 4° C. Membranes were then rinsed with Phosphate Buffered Solution containing Tween and HRP-conjugated secondary antibodies (at 1:1000 dilution). Proteins were visualised using enhanced chemiluminescence.

[2] = Blood and liver safety parameters (haemoglobin, white blood counts, transaminases, serum iron); assay type: in vivo, C57Bl/6 mice; details: vs control mice
Method: (§2) Plasma insulin was measured with ELISA kits. Liver transaminases and plasma lipids were performed by Sydpath Pathology, St Vincent's Hospital. Liver triglycerides were extracted using methanol/chloroform 2:1 and detected using colorimetric assay.

[3] = Body weight of mice on high fat diet with DFS; assay type: in vivo, C57Bl/6 mice; details: Studies 1-4, vs control mice, from about 3 to about 10 weeks after commencement
Method: Four studies were performed using C57Bl/6 mice. Study 1 included 30 control mice and 30 mice administered DFS. Study 2 included 30 control mice and 30 mice administered DFS. Study 3 included 8 control mice and 8 mice administered DFS. Study 4 included 18 control mice and 18 mice administered DFS. Mice in Study 3 differed to those in studies 1 and 2 in so far as they were sourced from different colonies.
Mice were randomly separated equally into a treatment group receiving Deferasirox (DFS) or a control group (CON). DFS was powdered using a mortar and pestle and mixed in thoroughly with the dry mineral mix prior to the addition of melted lard and then left to harden overnight in the refrigerator to form high-fat diet (HFD). From 6 weeks of age for up to 25 weeks, the mice were then fed ad libitum this HFD, from which 45% of their calories were derived from animal lard.
as §1, with “Indirect calorimetry was performed using the Oxymax System (Columbus Instruments, Columbus, Ohio) at weeks 0, 4, 8 and 25. Measurements were taken over a 12-hour light cycle and a 12-hour dark cycle.” left out

[4] = Blood glucose levels assessed at random times; assay type: in vivo, C57Bl/6 mice; details: over 9 weeks of high fat diet, vs CON mice
Method: as §1

[5] = Weight of visceral, white and brown adipose tissue; assay type: in vivo, C57Bl/6 mice; details: high fat diet, vs control mice
[6] = Body weight of ob/ob mice on chow diet with DFS; assay type: in vivo; details: vs control ob/ob mice
Method: Studies were also performed using ob/ob mice, in particular, 5 ob/ob controls and 5ob/ob mice administered DFS. Wild type C57bl/6 mice were also used as controls, 4 untreated and 4 administered DFS.

[7] = Intraperitoneal glucose tolerance test; assay type: in vivo, C57Bl/6 mice; details: 2 g glucose/kg i.p., vs CON mice
Method: as §1
Mice were fasted overnight for 16 hours. Glucose was administered at a dose of 2g/kg by intraperitoneal injection in the form of a 20% dextrose solution. Blood glucose was measured via glucometer (Accucheck Advantage II, Roche, Australia) prior to, and at 15, 30, 60, 90 and 120 minutes after the dextrose injection.
Mice were fasted for 6 hours before intraperitoneal administration of glucose (2 g/kg dose) in sterile water. Blood glucose was measured by glucometer at the times indicated.

[8] = test system: AKT2, IRS1, IRS2, PFK, GLUT2, HSL, LPL; test: Liver gene expression by quantitative real-time PCR; assay type: in vivo, C57Bl/6 mice; details: vs control
Source text: Tissues were homogenized in extraction buffer and RNA was isolated according to the RNeasy Kit protocol. […] The level of mRNA for each gene was normalized to the level of TATA box binding-protein (TBP) mRNA in each sample.

[9] = HFD-induced hepatic lipid accumulation (steatosis); assay type: in vivo, C57Bl/6 mice; details: 10 weeks on HFD, vs CON mice, data not shown
Method: (§3) Mice livers were fixed in 10% buffered formaldehyde, embedded in paraffin and slides were prepared using standard haematoxylin and eosin as well as Perl staining to visualize hepatic iron.
as §2

[10] = Fasting plasma insulin and glucose stimulated insulin secretion (GSIS); assay type: in vivo, C57Bl/6 mice
Method: as §1, §2

Insulin tolerance test = assay type: in vivo, C57Bl/6 mice
Method: as §1
Mice were fasted overnight for 16 hours. Insulin was injected at 0.5 units per kg (diluted in 1× PBS with 1% bovine serum albumin) by intraperitoneal injection. Blood glucose was measured via glucometer prior to, and at 10, 20, 30, 45 and 60 minutes after the insulin injection.

Iron levels in the liver = assay type: in vivo, C57Bl/6 mice; details: vs CON mice, data not shown
Method: as §3

Food intake studies = assay type: in vivo, C57Bl/6 mice
Method: as §1

CC(=O)N(O)CCCCCNC(=O)CCC(=O)N(O)CCCCCNC(=O)CCC(=O)N(O)CCCCCN [DFO]
metabolism in a subject ([1]; summary statement of the inventors' work): capable of increasing metabolism

O=C(O)c1ccc(-n2nc(-c3ccccc3O)nc2-c2ccccc2O)cc1 [DFS, 4-[3,5-Bis (2-hydroxyphenyl)-1H-1,2,4-triazol-1-yl]-benzoic acid]
level of HIF-1α relative to β-tubulin (HIF-1α): increased HIF-1α; also recorded: higher levels of HIF-1α
haemoglobin levels / anaemia [2]: does not result in anaemia; also recorded: No significant difference
serum alanine transaminase levels [2]: No significant difference
serum aspartate aminotransferase levels [2]: No significant difference
serum iron levels [2]: No significant difference
significantly reduced liver function [2]: does not result in
white blood counts [2]: No significant difference
body weight / weight gain [3]: significantly reduced body weights; also recorded: decreases weight gain
blood glucose levels at random times [4]: generally had lower blood glucose levels; also recorded: significantly lower blood glucose levels
weight of brown adipose tissue (BAT) [5]: unchanged
weight of visceral adipose tissue (VAT) [5]: reduced; also recorded: significantly lighter
weight of white adipose tissue (WAT) [5]: reduced; also recorded: significantly lighter
weight gained over an eight week period ([6]; ob/ob mice on chow diet, p<0.0005): significantly lower; also recorded: gained significantly less weight
body weight ([6]; ob/ob mice on normal chow diet): reduced body weight (or reduced body weight increase)
glucose tolerance ([7]; 21 weeks of high fat diet): continued beyond at least week 21; also recorded: significantly improved insulin tolerance
glucose tolerance ([7]; five weeks of high fat diet): significantly better glucose tolerance; also recorded: significantly improved glucose tolerance
AKT2 gene expression ([8]; normalized to TBP mRNA): significantly increased
IRS1 gene expression ([8]; normalized to TBP mRNA): significantly increased; also recorded: increased expression
IRS2 gene expression ([8]; normalized to TBP mRNA): significantly increased
PFK gene expression ([8]; normalized to TBP mRNA): significantly increased
GLUT2 expression [8]: trend for improved
hormone sensitive lipase (HSL) gene expression [8]: significantly increased; also recorded: increased expression
lipoprotein lipase (LPL) gene expression [8]: significantly increased; also recorded: increased expression
macroscopic hepatic steatosis [9]: relatively protected
mean fasting insulin levels vs control ([10]; high fat diet, p<0.005): significantly lower
fasting insulin levels ([10]; high fat diet, mean + SEM, p=0.005 vs control): 2837+874 pmol/L
glucose stimulated insulin secretion (GSIS) profile ([10]; week 7, 3 g glucose/kg, vs control): better preservation
insulin tolerance (ITT) (Insulin tolerance test; following five weeks of high fat diet, vs CON mice): performed significantly better; also recorded: significantly improved insulin tolerance
proportion of animals with glucoses <2 mmol/L (Insulin tolerance test; vs 38% of controls, p<0.001, indicating improved insulin sensitivity, data not shown): About 80%
liver iron levels (Iron levels in the liver): lower iron levels
oxygen consumption (VO2) ([1]; after 8 weeks of high fat diet and DFS, vs control mice): significantly increased; also recorded: consume significantly more oxygen than control mice
oxygen consumption (VO2) ([1]; after 25 weeks of high fat diet and DFS, vs control mice): significantly increased; also recorded: consume significantly more oxygen than control mice
metabolic rate ([1]; high fat diet, vs control mice): significantly higher metabolic rate
respiratory exchange ratio (RER) (VCO2/VO2) ([1]; high fat diet, vs control mice): significantly reduced
energy expenditure (EE) or heat production ([1]; over a day, high fat diet, vs control mice): significantly higher energy expenditure
oxygen consumption (VO2) / baseline metabolic rate ([1]; week 0 (initial week of high fat diet and DFS), vs control mice): similar; also recorded: no significant difference
CO2 production ([1]; week 8 of continuous DFS treatment, vs control mice): significantly increased
CO2 production ([1]; week 25 of continuous DFS treatment, vs control mice): significantly increased
food consumed adjusted per body weight (Food intake studies; by 25 weeks, HFD, vs CON mice): eaten more HFD adjusted per body weight; also recorded: consumed significantly more food per gram of body weight
feed intake (Food intake studies; week 0, vs CON animals): did not differ
